Measurements reported in patent publication US10125135B2, “Chemical compounds” (AstraZeneca AB, priority 2016, dated 2018).
Values after ≈ are worked out from the molar mass of the structure shown.

Legend:
[1] = target: ERα receptor in MCF-7 human ductal carcinoma breast cell line (Homo sapiens (Human), UniProt P03372); experiment: MCF-7 ER down regulation assay (immuno-fluorescence); type: cell-based; conditions: MCF-7 cells, 18-22 hours incubation; read-out: ER down regulation IC50 value
[2] = Thermodynamic solubility, shake-flask; type: physicochemical; conditions: thermodynamic from solid; aqueous phosphate buffer pH 7.4, 24 hours at 25° C.
Experimental: The thermodynamic solubility of a research compound is measured under standard conditions. It is a shake-flask approach that uses 10 mM DMSO solutions which are supplied from the Compound Managements liquid store and is a high throughput method. The dried compounds are equilibrated in an aqueous phosphate buffer (pH 7.4) for 24 hours at 25° C., the portion with the dissolved compound is then separated from the remains. The solutions are analyzed and quantified using UPLC/MS/MS, QC-samples are incorporated in each assay-run to ensure the quality of the assay.

[3] = target: estrogen receptor (ERα) in CAMA-1 human breast cancer cell line (Homo sapiens (Human), UniProt P03372); experiment: Western blotting assay, CAMA-1 cells; type: cell-based; conditions: 100 nM compound, 48 h; normalised to vehicle (0%) and 100 nM fulvestrant (100%)
Experimental: The ability of compounds to down-regulate estrogen receptor (ER) was assessed by western blotting using human breast cancer cell lines (MCF-7 and CAMA-1). Cells were plated into 12-well tissue culture-treated plates at 0.5×10^6/well in phenol red-free RPMI containing 2 mM L-glutamine and 5% (v/v) charcoal treated foetal calf serum (F6765, Sigma). Cells were incubated with compounds (100 nM) or vehicle control (0.1% DMSO) for 48 h at 37° C., 5% CO2 before washing once with PBS and lysing with 80 μl lysis buffer (25 mM Tris/HCl, 3 mM EDTA, 3 mM EGTA, 50 mM NaF, 2 mM sodium orthovanadate, 0.27 M sucrose, 10 mM β-glycerophosphate, 5 mM sodium pyrophosphate, 0.5% TritonX-100, pH 6.8) on ice.
Cells were scraped, sonicated and centrifuged prior to performing a protein assay (DC Bio-Rad Protein kit, 500-0116) and making samples to a protein concentration of 1-2 mg/m1 in lysis buffer containing 1× LDS Sample Buffer (NP0007, Invitrogen) and 1× NuPAGE sample reducing agent (NP0009, Invitrogen). Samples were boiled for 10 min at 95° C. and then frozen at −20° C. until ready for use.
10-20 μg protein was loaded onto 26-well Criterion gels (BioRad 345-0034). Gels were run at 125 V for 1 hr 25 min in running buffer (24 mM Tris Base Sigma, 192 mM Glycine, 3.5 mM SDS, made up in distilled water). Gels were then transferred at 30V for 2 hr in transfer buffer (25 mM Tris, 192 mM Glycine, 20% (v/v) methanol, pH 8.3, made up in distilled water) onto nitrocellulose membrane. The blot was stained with Ponceau S (P7170, Sigma) and cut according to appropriate molecular weight markers.
Membranes were blocked for 1 hour at room temp in 5% Marvel (w/v) in phosphate-buffered saline containing 0.05% Tween™ 20 (PBS/Tween). Blots were then incubated with anti-ERα (SP1) rabbit monoclonal antibody (Thermofisher) diluted 1:1000 at 4° C. overnight (with gentle shaking) followed by several washes with PBS/Tween. Secondary anti-rabbit HRP antibody (7074, CST) diluted 1:2000 dilution was incubated for 2 h at room temperature (with gentle shaking) followed by several washes with PBS/Tween. All antibodies were made up in 5% Marvel (w/v) in PBS/Tween.
The immunoblots were developed using Pierce WestDura chemiluminescent reagents (Thermo Scientific 34076) and developed/quantified on the G-box using Syngene software. Down-regulation of the ERα receptor was normalised to the vehicle control (0% down-regulation) and the 100 nM fulvestrant control (100% down-regulation) run within the same gel.

Sequence of ERα receptor in MCF-7 human ductal carcinoma breast cell line (P03372 whole entry): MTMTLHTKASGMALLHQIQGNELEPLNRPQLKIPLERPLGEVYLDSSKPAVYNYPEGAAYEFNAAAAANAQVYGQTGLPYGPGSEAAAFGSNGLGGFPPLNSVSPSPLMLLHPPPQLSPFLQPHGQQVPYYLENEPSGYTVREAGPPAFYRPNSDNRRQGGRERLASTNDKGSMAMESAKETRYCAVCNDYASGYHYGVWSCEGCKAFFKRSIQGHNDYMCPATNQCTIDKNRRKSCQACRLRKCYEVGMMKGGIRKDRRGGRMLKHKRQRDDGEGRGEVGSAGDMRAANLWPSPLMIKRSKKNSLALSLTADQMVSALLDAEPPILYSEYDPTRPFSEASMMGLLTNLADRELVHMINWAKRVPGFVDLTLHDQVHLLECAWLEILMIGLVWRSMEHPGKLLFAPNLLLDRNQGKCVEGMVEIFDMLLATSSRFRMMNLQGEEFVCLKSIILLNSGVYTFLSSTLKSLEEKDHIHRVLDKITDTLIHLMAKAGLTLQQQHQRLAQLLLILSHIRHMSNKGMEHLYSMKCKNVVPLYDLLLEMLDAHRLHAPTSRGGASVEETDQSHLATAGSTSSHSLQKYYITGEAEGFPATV
Sequence of estrogen receptor (ERα) in CAMA-1 human breast cancer cell line (P03372 whole entry): as above

Row | Compound | DC50 [1] [pM] | solubility at 24 h [2] [µM] | CAMA1 Western % ER deg vs Fv [3] [%]
1 | COc1cc(OCCN2CC(CF)C2)ccc1[C@@H]1c2ccc3[nH]ncc3c2C[C@@H](C)N1CC(C)(C)F [Example 5, (6S,8R)-7-(2-fluoro-2-methylpropyl)-6-(4-(2-(3-(fluoromethyl)azetidin-1-yl)ethoxy)-2-methoxyphenyl)-8-methyl-6,7,8,9-tetrahydro-3H-pyrazolo[4,3-f]isoquinoline] | 160 | 263 (≈ 131 µg/mL) | 74
2 | COc1cc(OCCN2CC(CF)C2)ccc1[C@@H]1c2ccc3[nH]ncc3c2C[C@@H](C)N1CC1(F)CC1 [Example 6, (6S,8R)-7-((1-fluorocyclopropyl)methyl)-6-(4-(2-(3-(fluoromethyl)azetidin-1-yl)ethoxy)-2-methoxyphenyl)-8-methyl-6,7,8,9-tetrahydro-3H-pyrazolo[4,3-f]isoquinoline] | 130 | 957 (≈ 475 µg/mL) | 87
3 | C[C@@H]1Cc2c(ccc3[nH]ncc23)[C@@H](c2ccc(OCCN3CC(CF)C3)cn2)N1CC1(F)CC1 [Example 8, (6S,8R)-7-((1-fluorocyclopropyl)methyl)-6-(5-(2-(3-(fluoromethyl)azetidin-1-yl)ethoxy)pyridin-2-yl)-8-methyl-6,7,8,9-tetrahydro-3H-pyrazolo[4,3-f]isoquinoline] | 390 | > 1000 | 86
4 | COc1cc(OCCN2CC(CF)C2)ccc1[C@@H]1c2ccc3[nH]ncc3c2C[C@@H](C)N1CC(C)C [Example 9, (6S,8R)-6-(4-(2-(3-(fluoromethyl)azetidin-1-yl)ethoxy)-2-methoxyphenyl)-7-isobutyl-8-methyl-6,7,8,9-tetrahydro-3H-pyrazolo[4,3-f]isoquinoline] | 500 | > 1000 | 81
5 | C[C@@H]1Cc2c(ccc3[nH]ncc23)[C@@H](c2ccc(OCCN3CC(CF)C3)cn2)N1CC(F)(F)F [Example 49, (6S,8R)-6-(5-(2-(3-(fluoromethyl)azetidin-1-yl)ethoxy)pyridin-2-yl)-8-methyl-7-(2,2,2-trifluoroethyl)-6,7,8,9-tetrahydro-3H-pyrazolo[4,3-f]isoquinoline] | 210 | > 1000 | 77
6 | C[C@@H]1Cc2c(ccc3[nH]ncc23)[C@@H](c2ccc(OCCN3CC(CF)C3)cn2)N1CC(F)F [Example 51, (6S,8R)-7-(2,2-difluoroethyl)-6-(5-(2-(3-(fluoromethyl)azetidin-1-yl)ethoxy)pyridin-2-yl)-8-methyl-6,7,8,9-tetrahydro-3H-pyrazolo[4,3-f]isoquinoline] | 540 | 974 (≈ 448 µg/mL) | 82
